Source: ChEMBL document CHEMBL1201862, “PubChem BioAssay data set” (2004)
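Each compound was tested at five concentrations against cells in 96-well plates for 48 hours. GI50: concentration for 50% inhibition of growth.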 Activity calls are given as the source filed them. Cut-off read from the data, not from the text of the source: active = GI50 up to about 1.1 µM and inactive = higher.

Tests used:
Assay in all cases: NCI-60 cell line screen, 48 h
[1] = system: Hs-578T
[2] = system: OVCAR-8
[3] = system: SF-268
[4] = system: LOX IMVI
[5] = system: HCT-15
[6] = system: IGROV-1
[7] = system: UACC-62
[8] = system: TK-10
[9] = system: SK-MEL-28
[10] = system: MCF7
[11] = system: OVCAR-3
[12] = system: K562
[13] = system: NCI-H522
[14] = system: NCI/ADR-RES
[15] = system: HL-60
[16] = system: ACHN
[17] = system: SK-OV-3
[18] = system: SF-539
[19] = system: CCRF-CEM

Row | SMILES | GI50 [1] | GI50 [2] | GI50 [3] | GI50 [4] | GI50 [5] [µM] | GI50 [6] | GI50 [7] | GI50 [8] | GI50 [9] | GI50 [10] | GI50 [11] | GI50 [12] | GI50 [13] | GI50 [14] | GI50 [15] | GI50 [16] | GI50 [17] | GI50 [18] | GI50 [19]
1 | O=C1NC(=S)N/C1=C\c1cc2c(=O)c3ccccc3sc2s1 | 64.6 µM (inactive) | 57.5 µM (inactive) | > 100 µM (inactive) | 59.7 µM (inactive) | > 100 | 40.7 µM (inactive) | 29.4 µM (inactive) | 97.7 µM (inactive) | 40.4 µM (inactive) | 35.8 µM (inactive) | 54.1 µM (inactive) | 29.9 µM (inactive) | 71 µM (inactive) | > 100 µM (inactive) | 36.5 µM (inactive) | 60.8 µM (inactive) |  |  | 
2 | Cc1ccc(N(C(=O)Nc2ccccc2)C2=NCC(C)S2)cc1C (stereo not drawn) | 23.2 µM (inactive) | 29.2 µM (inactive) | 24 µM (inactive) | 16.6 µM (inactive) | 15.4 | 22.4 µM (inactive) |  | 21 µM (inactive) | 17.5 µM (inactive) | 12.8 µM (inactive) | 17.3 µM (inactive) | 42.7 µM (inactive) |  | 14.8 µM (inactive) | 20.1 µM (inactive) | 28.7 µM (inactive) | 39.6 µM (inactive) | 20.4 µM (inactive) | 19.6 µM (inactive)
3 | O=c1c2cc(Br)cc(Br)c2nc(CCCl)n1-c1ccc(O)c([N+](=O)[O-])c1 |  | 22.9 µM (inactive) | 19.3 µM (inactive) |  | 19 | 22.6 µM (inactive) | 22.5 µM (inactive) | 18.5 µM (inactive) | 19.7 µM (inactive) |  | 19.1 µM (inactive) | 33.3 µM (inactive) | 9.66 µM (inactive) |  | 23.3 µM (inactive) | 19.7 µM (inactive) | 15.8 µM (inactive) | 21.4 µM (inactive) | 20.7 µM (inactive)
4 | CCN1C(=O)C(=C/C=C/c2ccc(N(CC)CC)cc2)C(=O)N(CC)C1=S | > 100 µM (inactive) | > 100 µM (inactive) | > 100 µM (inactive) | > 100 µM (inactive) | > 100 | > 100 µM (inactive) | 87.5 µM (inactive) | > 100 µM (inactive) | > 100 µM (inactive) | > 100 µM (inactive) | 18 µM (inactive) | 83.9 µM (inactive) |  | 33.9 µM (inactive) | 23.6 µM (inactive) | > 100 µM (inactive) | > 100 µM (inactive) | 72.1 µM (inactive) | 32.4 µM (inactive)
5 | CC(=O)NC1C(OCc2ccccc2)OC(CO)C(O)C1OCC(=O)NC(C)C(=O)NC(CCC(=O)NCCCCNc1ccc([N+](=O)[O-])c2[nH]c3ccccc3c(=O)c12)C(N)=O (stereo not drawn) | 29.6 µM (inactive) | > 100 µM (inactive) | 38.8 µM (inactive) | > 100 µM (inactive) | 65 | 56 µM (inactive) |  | 92.9 µM (inactive) | > 100 µM (inactive) | > 100 µM (inactive) | > 100 µM (inactive) | > 100 µM (inactive) |  | > 100 µM (inactive) | > 100 µM (inactive) | 48.9 µM (inactive) | > 100 µM (inactive) | 49.3 µM (inactive) | 
6 | COP12(OC)NC(=O)OC1(C(F)(F)F)c1ccccc1O2 (stereo not drawn) |  | > 100 µM (inactive) | > 100 µM (inactive) | > 100 µM (inactive) | > 100 | > 100 µM (inactive) | > 100 µM (inactive) | > 100 µM (inactive) | > 100 µM (inactive) |  | > 100 µM (inactive) | > 100 µM (inactive) | > 100 µM (inactive) |  | > 100 µM (inactive) | > 100 µM (inactive) | > 100 µM (inactive) | > 100 µM (inactive) | > 100 µM (inactive)
7 | COc1cc2ccnc(-c3c4ccccc4c(N)c4c(OC)c(OC)ccc34)c2cc1OC |  | 3.6 µM (inactive) | 3.01 µM (inactive) | 1.52 µM (inactive) |  | 3.24 µM (inactive) | 2.79 µM (inactive) | 10.4 µM (inactive) | 2.36 µM (inactive) |  |  | 1.55 µM (inactive) | 3.16 µM (inactive) |  | 1.39 µM (inactive) | 3.54 µM (inactive) | 7.13 µM (inactive) | 2.09 µM (inactive) | 2.37 µM (inactive)
8 | N#Cc1c(=O)c2ccccc2n2c1[nH]c1ccccc12 | 20.9 µM (inactive) | 27.6 µM (inactive) | 31.5 µM (inactive) | 20.6 µM (inactive) | 17.6 | 16.1 µM (inactive) | 29.4 µM (inactive) | 49.5 µM (inactive) | 52.2 µM (inactive) | 56.2 µM (inactive) | 38.6 µM (inactive) | 21.3 µM (inactive) |  | 15.3 µM (inactive) | 18.7 µM (inactive) | 58.6 µM (inactive) |  | 32.1 µM (inactive) | 17.8 µM (inactive)
9 | O=c1c(Sc2c(SCSc3cnc4ccccc4c3Sc3c[nH]c4ccccc4c3=O)cnc3ccccc23)c[nH]c2ccccc12 | 62.8 µM (inactive) | > 100 µM (inactive) | 92.3 µM (inactive) | > 100 µM (inactive) | 96.8 | 88.9 µM (inactive) | 43.3 µM (inactive) | > 100 µM (inactive) | 22.9 µM (inactive) |  | > 100 µM (inactive) |  | > 100 µM (inactive) | > 100 µM (inactive) | 0.54 µM (active) | > 100 µM (inactive) |  | > 100 µM (inactive) | 12.7 µM (inactive)
10 | CCOc1ccccc1N1CSc2nnc(-c3ccccc3)n2C1 |  | > 100 µM (inactive) | > 100 µM (inactive) |  | > 100 | > 100 µM (inactive) | > 100 µM (inactive) | > 100 µM (inactive) | > 100 µM (inactive) | 97.3 µM (inactive) | > 100 µM (inactive) | > 100 µM (inactive) | > 100 µM (inactive) | > 100 µM (inactive) |  | > 100 µM (inactive) | > 100 µM (inactive) | > 100 µM (inactive) | 20 µM (inactive)
11 | CC(=O)Nc1ccccc1NC1CC(C)N(c2ccccc2)N1C(C)=O (stereo not drawn) |  | > 10 µM (inactive) | > 10 µM (inactive) |  | > 10 | > 10 µM (inactive) | > 10 µM (inactive) | > 10 µM (inactive) | > 10 µM (inactive) | > 10 µM (inactive) |  | > 10 µM (inactive) |  |  | > 10 µM (inactive) |  | > 10 µM (inactive) |  | > 10 µM (inactive)
12 | COc1cc(C2c3cccc4cccc(c34)C3CCC(=O)N32)cc(O)c1O (stereo not drawn) |  | 27.9 µM (inactive) |  |  | 23.7 | 26.9 µM (inactive) | 25.6 µM (inactive) |  | 33.5 µM (inactive) | 20.6 µM (inactive) | 18.1 µM (inactive) | 10.8 µM (inactive) |  | 37.7 µM (inactive) | 14.6 µM (inactive) | > 50 µM (inactive) | > 50 µM (inactive) | 20.9 µM (inactive) | 10.9 µM (inactive)
13 | CCCCCCNCCc1c[nH]cn1 | > 100 µM (inactive) | > 100 µM (inactive) | > 100 µM (inactive) | > 100 µM (inactive) | > 100 | > 100 µM (inactive) | > 100 µM (inactive) |  | > 100 µM (inactive) | > 100 µM (inactive) | > 100 µM (inactive) | > 100 µM (inactive) | > 100 µM (inactive) | > 100 µM (inactive) |  | > 100 µM (inactive) | > 100 µM (inactive) | > 100 µM (inactive) | > 100 µM (inactive)
14 | CN(Cc1cnc2nc(N)nc(N)c2n1)c1ccc(C(=O)NCS(=O)(=O)O)cc1 | > 100 µM (inactive) | > 100 µM (inactive) | 33.3 µM (inactive) | 90.4 µM (inactive) | > 100 | > 100 µM (inactive) | > 100 µM (inactive) | > 100 µM (inactive) | > 100 µM (inactive) | 57.9 µM (inactive) | > 100 µM (inactive) | > 100 µM (inactive) | > 100 µM (inactive) | 34.3 µM (inactive) |  | 64.9 µM (inactive) | > 100 µM (inactive) | 85.7 µM (inactive) | 
15 | Cc1onc(-c2c(F)cccc2Cl)c1C(=O)N[C@@H]1C(=O)N2[C@@H]1SC(C)(C)[C@@H]2C(=O)O | 44 µM (inactive) | > 100 µM (inactive) | > 100 µM (inactive) |  | > 100 | > 100 µM (inactive) | > 100 µM (inactive) | > 100 µM (inactive) | > 100 µM (inactive) | > 100 µM (inactive) | > 100 µM (inactive) | > 100 µM (inactive) | > 100 µM (inactive) | > 100 µM (inactive) |  | > 100 µM (inactive) | > 100 µM (inactive) | > 100 µM (inactive) | 
16 | CN1CC2CC(C1)c1cccc(=O)n1C2 (stereo not drawn) | > 100 µM (inactive) | > 100 µM (inactive) | > 100 µM (inactive) | > 100 µM (inactive) | > 100 | > 100 µM (inactive) | > 100 µM (inactive) | > 100 µM (inactive) |  | > 100 µM (inactive) | > 100 µM (inactive) |  | > 100 µM (inactive) | > 100 µM (inactive) |  | > 100 µM (inactive) | > 100 µM (inactive) |  | 
17 | COc1c(CC=C(C)C)c(O)c(C(CC(C)C)c2c(O)c(C(C)=O)c(O)c3c2OC(C(C)(C)O)C3)c(O)c1C(C)=O (stereo not drawn) [ACROFOLIONE A] | 7.74 µM (inactive) | 4.12 µM (inactive) | 5.33 µM (inactive) | 4.38 µM (inactive) | 3.86 | 3.65 µM (inactive) | 5.26 µM (inactive) |  | 9.18 µM (inactive) | 4.26 µM (inactive) | 5.42 µM (inactive) | 2.13 µM (inactive) | 3.39 µM (inactive) | 3.82 µM (inactive) | 1.97 µM (inactive) | 4.31 µM (inactive) |  | 4.93 µM (inactive) | 5.36 µM (inactive)
